Measured values: ChEMBL document CHEMBL1152503, “Quantitative high-throughput screening identifies inhibitors of anthrax-induced cell death” (Bioorg Med Chem, 2009)
pIC50: −log10 of the molar value. Calls of active or inactive are those of the source. The calls are words filed in the database; no cut-off is given here.

Experiments:
CHO [1] = experiment: Cytoprotective activity against diphtheria toxin-induced cell death in CHO cells assessed as cell viability at 10 uM by MTT reduction assay; format: functional; conditions: Cricetulus griseus, read-out: Activity
RAW264.7 [2] = experiment: Cytoprotective activity against anthrax toxin lethal factor/protective antigen-induced cell death in mouse RAW264.7 cells assessed as cell viability at 10 uM by MTT reduction assay; format: functional, cell-based
CHO [3] = experiment: Cytoprotective activity against anthrax fusion toxin FP59-induced cell death in CHO cells assessed as cell viability by MTT reduction assay; format: functional, cell-based; conditions: Cricetulus griseus
RAW264.7 [4] = experiment: Cytoprotective activity against anthrax lethal toxin-induced cell death in mouse RAW264.7 cells assessed as cell viability at 2 uM preincubated for 45 mins with lethal toxin measured after 1 hr by MTT reduction assay; format: functional, cell-based
RAW264.7 [5] = experiment: Cytoprotective activity against anthrax toxin lethal factor-induced cell death in mouse RAW264.7 cells assessed as cell viability at 3 uM by MTT reduction assay; format: functional, cell-based
CHO [6] = experiment: Cytoprotective activity against diphtheria toxin-induced cell death in CHO cells assessed as cell viability at 5 uM by MTT reduction assay; format: functional; conditions: Cricetulus griseus, read-out: Activity
RAW264.7 [7] = experiment: Cytotoxicity against mouse RAW264.7 cells at 10 uM by MTT assay; format: cell-based; conditions: raw264.7, 10 µM
[8] = target: Replicase polyprotein 1ab (Severe acute respiratory syndrome-related coronavirus, UniProt P0C6X7); experiment: Inhibition of SARS Co-V 3CL protease

SMILES: Cc1ccc2oc(=O)c3cnn(CC(=O)Nc4ccccc4N4CCN(C)CC4)c3c2c1
- viability at 10 µM (CHO [1]): 75%
- Activity (RAW264.7 [2]): Active
- Activity (CHO [3]): Active

SMILES: Cc1ccnc(-n2sc3ccccc3c2=O)n1
- Activity (RAW264.7 [2]): inactive

SMILES: N=C1Sc2ccccc2C2=NCCCN12
- Activity (RAW264.7 [2]): inactive

SMILES: COc1cc2c(O)c3c(c(-c4ccc5c(c4)OCO5)c2cc1OC)C(=O)OC3 [DIPHYLLIN]
- Activity (RAW264.7 [4]): Active
- Activity (RAW264.7 [5]): Active
- Activity (CHO [3]): Active
- viability at 5 µM (CHO [6]): 100%

SMILES: CN(C)CCCn1cc(C2=C(c3c[nH]c4ccccc34)C(=O)NC2=O)c2ccccc21 [GF-109203]
- Activity (RAW264.7 [7]): Toxic
- viability at 10 µM (CHO [1]): 60%

SMILES: O=C(Nc1ccc([N+](=O)[O-])cc1Cl)c1cc(Cl)ccc1O [NICLOSAMIDE]
- pIC50 [8]: 4.40
- Activity (RAW264.7 [2]): Active
- Activity (CHO [3]): Active
- viability at 5 µM (CHO [6]): 100%
